Assay results from article PMC12679356 (RSC Advances, 2025).
Converted amounts (≈) assume the structure as drawn.

What was measured:
[1] = system: Caco-2; assay: MTT cytotoxicity assay on Caco-2; format: cell-based; conditions: Homo sapiens, Caco-2, read-out: IC50 Caco-2
[2] = system: MDA-MB-231; assay: MTT cytotoxicity assay on MDA-MB-231; format: cell-based
[3] = system: HEK-293; assay: MTT cytotoxicity assay on non-cancerous HEK-293; format: cell-based; conditions: Homo sapiens, HEK293, read-out: IC50 HEK-293
[4] = system: MCF-7 breast cancer cells; conditions: read-out: IC50 MCF-7; literature hybrids 5-7 and 5-FU; cited from earlier work

Compound	IC50 [1]	IC50 ([2]; Homo sapiens, MDA-MB-231, read-out: IC50 MDA-MB-231)	SI HEK/MDA ([2]; selectivity index, HEK-293 vs MDA-MB-231)	IC50 [3]	IC50 [4]
Cc1ccc(CNC(=O)Cn2cc(CSc3nc4ccccc4[nH]3)nn2)cc1 [Compound 11]	63.8 ± 1.09 µg/mL (≈ 163 µM)	68.3 ± 3.1 µg/mL (≈ 174 µM)	0.93	63.4 ± 2.5 µg/mL (≈ 162 µM)	–
O=c1[nH]cc(F)c(=O)[nH]1 [Compound 5-FU, 5-FU]	–	–	–	–	12.4 µM
